Experimental data from paper PMC6073568, “Efficient Lead Finding, Activity Enhancement and Preliminary Selectivity Control of Nuclear Receptor Ligands Bearing a Phenanthridinone Skeleton” (International Journal of Molecular Sciences, 2018).

What was measured:
LXRβ = molecular target: T1, LXRβ (Homo sapiens, UniProt P55055); details: read-out: LXRβ antagonistic activity (IC50); cited from earlier work
T1 construct: CMX-GAL4N-hLXRβ-LBD; expressed in transfected cells; host or cells: HEK293
T1 sequence (P55055 222-460 limits assumed): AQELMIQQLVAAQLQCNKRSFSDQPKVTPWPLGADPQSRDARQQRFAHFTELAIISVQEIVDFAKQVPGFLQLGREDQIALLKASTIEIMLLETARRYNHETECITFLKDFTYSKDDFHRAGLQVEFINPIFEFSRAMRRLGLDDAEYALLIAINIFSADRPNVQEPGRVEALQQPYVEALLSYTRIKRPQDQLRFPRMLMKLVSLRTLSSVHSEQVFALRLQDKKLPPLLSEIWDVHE

[1] = system: LNCaP cells (T877A mutation in the AR LBD); assay: PSA level (ELISA) in LNCaP cell line; assay type: cell-based, human; details: for IC50: Homo sapiens, LNCaP, dihydrotestosterone 10 nM, 48 h, ± SEM
Text: Chronic administration of AR antagonists often leads to the development of resistance. […] In contrast, another AR antagonist, enzalutamide, was reported to antagonize AR mutant T877A [23]. Thus, development of a novel chemical class of AR antagonists, different from flutamide analogs seems an attractive approach for the treatment of AR antagonist-resistant cancer, providing further motivation to evaluate steroid surrogates. Therefore, we investigated the antiandrogenic activity of several potent AR antagonists by means of PSA (prostate-specific antigen, an AR-regulated gene) ELISA (enzyme-linked immunosorbent assay) in human prostate cancer cell line LNCaP, which has T877A mutation in the AR LBD.
The human prostate cancer cell line LNCaP (ECACC, London, UK) was routinely maintained in RPMI1640 containing 10% (v/v) fetal bovine serum, and penicillin/streptomycin at 37 °C in a humidified atmosphere of 5% CO2 in air. Cells were cultured in RPMI1640 without phenol red containing 10% (v/v) charcoal-stripped fetal bovine serum, and penicillin/streptomycin at 37 °C in a humidified atmosphere of 5% CO2 in air for 3 days. Then cells were plated in 96-well plates at 1 × 10^4 cells/well and incubated overnight. On the next day, cells were treated with fresh media containing test compound plus dihydrotestosterone (final concentration 10 nM), and incubated for 48 h. Then, PSA levels were measured in the culture supernatants, after 100-fold dilution with the medium, using ELISA (Immunospec Corp., CA, USA Free prostate-specific antigen cat. #E29-212) according to the manufacturer’s instructions. All data points were carried out twice in triplicate.

PR = molecular target: T2, PR (Homo sapiens, UniProt P06401); assay: T-47D alkaline phosphatase assay (PR antagonism); assay type: cell-based
T2 sequence (P06401 1-933): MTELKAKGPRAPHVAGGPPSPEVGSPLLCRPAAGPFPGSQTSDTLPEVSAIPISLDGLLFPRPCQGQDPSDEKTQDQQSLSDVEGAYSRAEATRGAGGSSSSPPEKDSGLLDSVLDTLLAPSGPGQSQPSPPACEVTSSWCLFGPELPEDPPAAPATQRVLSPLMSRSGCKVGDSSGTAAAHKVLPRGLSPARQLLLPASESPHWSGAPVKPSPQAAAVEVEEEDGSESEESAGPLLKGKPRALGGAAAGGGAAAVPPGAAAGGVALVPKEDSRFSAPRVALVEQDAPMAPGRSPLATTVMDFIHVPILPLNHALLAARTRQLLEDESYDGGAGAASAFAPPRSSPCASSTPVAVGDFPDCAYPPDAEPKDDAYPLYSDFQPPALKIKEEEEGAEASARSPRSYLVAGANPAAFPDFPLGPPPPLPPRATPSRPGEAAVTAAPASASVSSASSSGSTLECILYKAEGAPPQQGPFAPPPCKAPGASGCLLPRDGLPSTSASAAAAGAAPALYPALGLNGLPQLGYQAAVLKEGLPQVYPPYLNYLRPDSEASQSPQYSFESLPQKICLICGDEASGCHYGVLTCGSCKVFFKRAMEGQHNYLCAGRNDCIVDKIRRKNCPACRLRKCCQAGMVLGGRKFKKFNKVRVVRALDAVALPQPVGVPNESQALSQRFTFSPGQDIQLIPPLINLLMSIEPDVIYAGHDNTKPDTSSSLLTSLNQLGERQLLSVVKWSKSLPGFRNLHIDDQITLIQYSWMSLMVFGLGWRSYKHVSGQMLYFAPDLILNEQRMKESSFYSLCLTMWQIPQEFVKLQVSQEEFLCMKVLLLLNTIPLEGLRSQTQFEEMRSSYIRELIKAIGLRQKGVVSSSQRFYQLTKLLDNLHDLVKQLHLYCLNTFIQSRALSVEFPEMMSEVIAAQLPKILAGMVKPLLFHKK

RORγ = molecular target: T3, RORγ (Homo sapiens, UniProt P51449); assay: RORγ inverse agonist reporter gene assay in HEK293; assay type: cell-based; details: new compound 43, read-out: RORγ inverse agonistic activity (IC50)
T3 construct: expressed in transfected cells; host or cells: HEK293
T3 sequence (P51449 1-518): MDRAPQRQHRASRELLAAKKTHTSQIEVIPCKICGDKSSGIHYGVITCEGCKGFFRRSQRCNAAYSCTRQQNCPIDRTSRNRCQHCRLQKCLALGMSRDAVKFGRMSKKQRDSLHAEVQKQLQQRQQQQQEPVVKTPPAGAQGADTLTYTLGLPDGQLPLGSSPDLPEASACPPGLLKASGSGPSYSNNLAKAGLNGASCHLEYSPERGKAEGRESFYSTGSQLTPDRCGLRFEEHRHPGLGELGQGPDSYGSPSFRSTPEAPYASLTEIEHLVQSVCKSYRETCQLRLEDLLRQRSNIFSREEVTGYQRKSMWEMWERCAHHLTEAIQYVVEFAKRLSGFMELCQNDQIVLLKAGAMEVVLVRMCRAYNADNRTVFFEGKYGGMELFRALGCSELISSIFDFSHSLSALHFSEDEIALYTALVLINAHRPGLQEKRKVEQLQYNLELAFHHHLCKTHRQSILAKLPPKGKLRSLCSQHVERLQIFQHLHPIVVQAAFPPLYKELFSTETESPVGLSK

SMILES	IC50 [1] [nM]	also measured
O=c1[nH]c2ccc(C(O)(C(F)(F)F)C(F)(F)F)cc2c2ccccc12 [Compound 1]	> 10000	IC50 (LXRβ): 5100 nM
Cn1c(=O)c2ccccc2c2cc(C(O)(C(F)(F)F)C(F)(F)F)ccc21 [Compound 13]	> 10000	IC50 (LXRβ): > 20000 nM
CCCCn1c(=O)c2ccc(OC)cc2c2cc(C(O)(C(F)(F)F)C(F)(F)F)ccc21 [Compound 23]		weaker PR activity than 12 (PR): 5 fold
CCCCn1c(=O)c2ccccc2c2cc(C(O)(C(F)(F)F)C(F)(F)F)c3c(c21)OCO3 [Compound 26]	560 ± 260	
O=c1[nH]c2c(F)cc(C(O)(C(F)(F)F)C(F)(F)F)cc2c2ccccc12 [Compound 32]	490 ± 260	
O=c1[nH]c2ccc(C(O)(C(F)(F)F)C(F)(F)F)cc2c2cccc(F)c12 [Compound 33]	190 ± 95	
O=c1[nH]c2ccc(C(O)(C(F)(F)F)C(F)(F)F)cc2c2ccc(F)cc12 [Compound 34]	> 10000	
O=c1[nH]c2ccc(C(O)(C(F)(F)F)C(F)(F)F)cc2c2cc(F)ccc12 [Compound 35]	550 ± 110	
O=c1[nH]c2c(Cl)cc(C(O)(C(F)(F)F)C(F)(F)F)cc2c2ccccc12 [Compound 43, 4-Chloro-2-(1,1,1,3,3,3-hexafluoro-2-hydroxypropan-2-yl)phenanthridin-6(5H)-one]	> 10000	antiandrogenic activity in LNCaP [1]: did not show antiandrogenic activity; IC50 (RORγ): > 20000 nM; IC50 (PR; alkaline phosphatase, T47D cells, progesterone 1 nM, new compound 43, read-out: PR antagonistic activity (IC50)): 350 nM
